For experiment [1], the system named is spontaneously hypertensive rats (SHR). As to the kind of experiment: Pharmacological Experiment 1: hypotensive effects, systolic blood pressure at one hour after oral administration, tail cuff method. Format: in vivo, rat. As to conditions: SHR P.O., 30 mg/kg. Here is the method:
Pharmacological Experiment 1: hypotensive effects
To spontaneously hypertensive rats (SHR) weighing 350-450 g (3-5 per group) was orally administered a test compound (30 mg/kg) dissolved in 0.5% hydroxypropylmethylcellulose, and systolic blood pressure at one hour after administration was determined by tail cuff method to examine hypotensive effects.

For experiment [2], the system named is thoracic aorta. As to the kind of experiment: Pharmacological Experiment 2: vasodilating effects, relaxation of phenylephrine-contracted thoracic aorta rings. Format: cell-based. The note with it: Oryctolagus cuniculus; rabbit thoracic aorta rings contracted with phenylephrine (10^-6 M); contraction by phenylephrine as 100%; read-out: vasodilating action (concentration necessary for 50% relaxation, IC50). Here is the method:
Pharmacological Experiment 2: vasodilating effects
Male rabbits (body weight 1.9-3.0 kg) were anesthetized with sodium pentobarbital and killed by exsanguinity. The thoracic aorta was removed and about 2 mm wide ring specimens were prepared. The specimens were hung in a 40 ml Magnus bath filled with Krebs-Henseleit solution (NaCl 117 mM; KCl 4.7 mM; CaCl2 2.5 mM; MgSO4 1.2 mM; NaHCO3 24.8 mM; KH2 PO4 1.2 mM; glucose 11.0 mM) at 37° C. at a load of 2 g. The Magnus bath was constantly aerated with a mixed gas (95% oxygen+5% carbon dioxide). The tension of the specimens was measured by isometric transducer (TB-611T, Nihon Koden). The specimens were contracted with phenylephrine (10^-6 M) and when the contraction became constant, the compound was cumulatively added to observe relaxing response. The relaxing response by the compound was calculated relative to contraction by phenylephrine as 100% as the concentration necessary for 50% relaxation (IC50, μM).

Experiment [3] concerns tracheal specimen. As to the kind of experiment: Pharmacological Experiment 3: effect on contraction caused by acetylcholine in extracted tracheal specimen. Format: cell-based. As to conditions: Cavia porcellus; guinea pig trachea contracted with acetylcholine (10^-6 M); relative to maximum response by papaverine (10^-4 M) as 100%; read-out: bronchodilative action (IC50). On the procedure:
Pharmacological Experiment 3: Effect on contraction caused by acetylcholine in tracheal specimen extracted from guinea pig
Male Hartley guinea pigs (body weight 260-390 g) were anesthetized by intraperitoneal administration of pentobarbital sodium (100 mg/kg) and killed by exsanguinity. The trachea was removed and ventral cartilage was cut open and ligament was cut in 3 mm width to prepare specimens. The specimens were hung in a 40 ml Magnus bath filled with Krebs-Henseleit solution (NaCl 117 mM; KCl 4.7 mM; CaCl2 2.5 mM; MgSO4 1.2 mM; NaHCO3 24.8 mM; KH2 PO4 1.2 mM; glucose 11.0 mM) at 37° C. at a load of 1 g. The Magnus bath was constantly aerated with a mixed gas (95% oxygen+5% carbon dioxide). The tension of the specimens was measured by isometric transducer (TB-611T, Nihon Koden) and recorded on a recorder (Ti-102, Tokai Irika). The specimens were contracted with acetylcholine (10^-6 M) and when the contraction became constant, the compound was cumulatively added to observe relaxing response. The relaxing response by the compound was calculated relative to maximum response by papaverine (10^-4 M) as 100% as the concentration necessary for 50% relaxation (IC50, μM).

Molecules are shown by their SMILES. pIC50: −log10 of the molar value.

With `C[C@@H](N)c1ccc(C(=O)Nc2ccncc2)cc1` [Example 1, (R)-N-(4-pyridyl)-4-(1-aminoethyl)benzamide], in experiment [1], the hypotensive effect is -116 mmHg. In turn, `C[C@@H](N)c1ccc(C(=O)Nc2ccnc3[nH]ccc23)cc1` [Example 9, (R)-(+)-N-(1H-pyrrolo[2,3-b]pyridin-4-yl)-4-(1-aminoethyl)benzamide] came in with a hypotensive effect in experiment [1] of -131 mmHg. Moreover, the pIC50 in experiment [2] and in experiment [3] was 7.30 throughout. In the case of `C[C@@H](N)c1ccc(C(=O)Nc2ccnc3[nH]ccc23)cc1N=[N+]=[N-]` [Example 150, (R)-(-)-N-(1H-pyrrolo[2,3-b]pyridin-4-yl)-4-(1-aminoethyl)-3-azidobenzamide], the pIC50 in experiment [2] is 7.52.
